The target of assay [1] is T1, HEK293-EBNA cells transfected with pCEP4-hEP2 receptors (Homo sapiens, UniProt P43116).
T1 construct: expressed in transfected cells; host or cells: HEK293-EBNA
The assay is described as follows: EP2 cAMP assay. Format: cell-based. The note with it: total cAMP, 1 hour 37° C. The procedure:
(§1) Compounds of the invention were tested in a total cAMP assay as follows. HEK293-EBNA cells transfected with pCEP4-hEP2 receptors were seeded in 96 well opaque plate (Costar #3917) at 4×10^4 cells per well in 100 μl of culture medium (D-MEM/F12 supplemented with 10% FBS, […] L-glutamine, and 250 μg/ml of hygromycin; all from GibcoBRL) and incubated at 37° C. After overnight incubation, the medium was removed from each well and replaced with 45 μl of assay medium consisted of phenol red free D-MEM/F-12, 0.1% BSA (GibcoBRL) and 0.1 mM3-isobutyl-1-methyl-xanthine (Sigma). After 15 minutes of incubation at 37° C., 16-16-dimethyl PGE-2 or compounds at desired concentrations in 20 μl of assay medium were added to cells and further incubated at 37° C. for 1 hour. Total cAMP (intra- and extra-cellular) was measured by using a cAMP-screen ELISA System (Tropix, #CS1000).
Background: Cyclic AMP is a second messenger, typically raised through Gs and lowered through Gi signalling.

The target in the next assay is EP2 receptor (Homo sapiens, UniProt P43116). Put plainly: EP2 receptor binding assay (3H-PGE2 SPA). The following applies: EP2 receptor membranes, 20 nM 3H-PGE2, pH 6.0, 2 hrs room temperature. The procedure:
Compounds of the invention were tested in an EP2 receptor binding assay of the following protocol. As referred to herein, the term a “standard EP2 receptor binding assay” designates the following protocol.

The next assay addresses EP4 receptor (Homo sapiens, UniProt P35408). The assay is described as follows: EP4 receptor binding assay (3H-PGE2 SPA). The note with it: EP4 receptor membranes, 20 nM 3H-PGE2, pH 6.0, 2 hrs room temperature. The procedure:
Compounds of the invention were tested in an EP4 receptor binding assay of the following protocol.

Assay [2] addresses T2, HEK293-EBNA cells transfected with pCEP4-hEP4 receptors (Homo sapiens, UniProt P35408).
T2 construct: expressed in transfected cells; host or cells: HEK293-EBNA
Put plainly: EP4 cAMP assay. Format: cell-based. The note with it: total cAMP, 1 hour 37° C. The procedure:
as §1, with “pCEP4-hEP4” for “pCEP4-hEP2”, “compounds of the invention” for “compounds”
In Table II, the tested compound is identified both by the corresponding synthetic Example number above as well as structure of the tested compound.

Bounds are passed on as bounds.

The EC50 is the concentration needed to bring the measured effect to its halfway point. Usually Ki stands for the equilibrium dissociation constant of an inhibitor or competing ligand from its target.

T1 sequence (P43116 whole entry): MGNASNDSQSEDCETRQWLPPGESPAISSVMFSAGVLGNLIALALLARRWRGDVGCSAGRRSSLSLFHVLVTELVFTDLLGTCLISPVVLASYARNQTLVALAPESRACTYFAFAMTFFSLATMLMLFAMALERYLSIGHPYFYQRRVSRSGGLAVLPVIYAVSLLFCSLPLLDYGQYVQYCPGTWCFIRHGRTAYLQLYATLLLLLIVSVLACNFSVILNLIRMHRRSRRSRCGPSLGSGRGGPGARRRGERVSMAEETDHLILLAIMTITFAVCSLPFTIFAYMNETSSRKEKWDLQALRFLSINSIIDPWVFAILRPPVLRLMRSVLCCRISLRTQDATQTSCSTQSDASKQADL
EP2 receptor, sequence (P43116 whole entry): as above
EP4 receptor, sequence (P35408 whole entry): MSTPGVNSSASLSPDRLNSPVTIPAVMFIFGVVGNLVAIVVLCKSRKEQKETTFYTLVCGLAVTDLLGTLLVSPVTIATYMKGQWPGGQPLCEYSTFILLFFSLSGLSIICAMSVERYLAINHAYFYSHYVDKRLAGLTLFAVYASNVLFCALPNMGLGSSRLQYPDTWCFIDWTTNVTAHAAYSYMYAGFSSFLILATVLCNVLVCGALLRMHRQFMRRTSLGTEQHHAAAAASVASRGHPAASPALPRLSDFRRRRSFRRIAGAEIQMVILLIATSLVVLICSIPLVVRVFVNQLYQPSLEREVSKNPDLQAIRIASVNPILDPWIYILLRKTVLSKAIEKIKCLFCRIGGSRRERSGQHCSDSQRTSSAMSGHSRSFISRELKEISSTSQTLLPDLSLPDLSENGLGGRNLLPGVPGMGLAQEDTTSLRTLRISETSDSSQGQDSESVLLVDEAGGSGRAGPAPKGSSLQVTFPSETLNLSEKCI
T2 sequence (P35408 whole entry): as above

Regarding `CCCC(C)C(O)CCCN1CCC(=O)N1CCc1ccc(C(=O)O)cc1` (centres unmarked) [Example 8, 4-{2-[2-(4-hydroxy-5-methyloctyl)-5-oxopyrazolidin-1-yl]ethyl}benzoic acid], the midpoint of the response in assay [1], the EC50, lay at 2100 nM. On EP2 receptor, this compound had a Ki of 5160 nM.
The like results for `O=C(O)c1ccc(CCN2C(=O)CCN2CCC(O)Cc2cccc(C(F)(F)F)c2)cc1` (centres unmarked) [Example 26, 4-[2-(2-{3-hydroxy-4-[3-(trifluoromethyl)phenyl]butyl}-5-oxopyrazolidin-1-yl)ethyl]benzoic acid] were, in that order, 17600 nM and 6650 nM.
The like results for `CCCCC(O)CCCN1CCC(=O)N1CCc1ccc(C(=O)O)cc1` (centres unmarked) [Example 6, 4-{2-[2-(4-hydroxyoctyl)-5-oxopyrazolidin-1-yl]ethyl}benzoic acid] were, in that order, 1400 nM and 5660 nM.
The like results for `CCCCCC(C)(O)CCCN1CCC(=O)N1CCc1ccc(C(=O)O)cc1` (centres unmarked) [Example 16, 4-{2-[2-(4-Hydroxy-4-methylnonyl)-5-oxopyrazolidin-1-yl]-ethyl}-benzoic acid] were, in that order, 1600 nM and 475 nM.
`O=C(O)c1ccc(CCN2C(=O)CCN2CCC(O)Cc2cccc(F)c2)cc1` (centres unmarked) [Example 25, 4-(2-{2-[4-(3-fluorophenyl)-3-hydroxybutyl]-5-oxopyrazolidin-1-yl}ethyl)benzoic acid]: the results for the Ki at EP2 receptor and at EP4 receptor were 6290 nM and 36 nM, respectively.
The like results for `O=C(O)c1ccc(CCN2C(=O)CCN2CCC(O)Cc2ccccc2)cc1` (centres unmarked) [Example 21, 4-{2-[2-(3-hydroxy-4-phenylbutyl)-5-oxopyrazolidin-1-yl]ethyl}benzoic acid] were, in that order, 6200 nM and 68 nM.
On to `CC(C)CC(O)CCN1CCC(=O)N1CCc1ccc(C(=O)O)cc1` (centres unmarked) [Example 12, 4-{2-[2-(3-hydroxy-5-methylhexyl)-5-oxopyrazolidin-1-yl]ethyl}benzoic acid], for which the EC50 in assay [1] is 15000 nM; in assay [2], 277 nM. Moreover, the Ki on EP2 receptor was 4410 nM; on EP4 receptor, 2000 nM.
In assay [1], `CC(C)CCC(C)(O)CCCN1CCC(=O)N1CCc1ccc(C(=O)O)cc1` (centres unmarked) [Example 11, 4-{2-[2-(4-hydroxy-4,7-dimethyloctyl)-5-oxopyrazolidin-1-yl]ethyl}benzoic acid] gave an EC50 of 10000 nM. This compound displayed a Ki on EP2 receptor of 20200 nM.
For the compound `CCCCCC(O)CCN1CCC(=O)N1CCc1ccc(C(=O)O)cc1` (centres unmarked) [Example 1, 4-[2-(2-(3-hydroxyoctyl)-5-oxopyrazolidin-1-yl)ethyl]benzoic acid], the EC50 in assay [1] is 595 nM; in assay [2] it was 5 nM. Also, the Ki was 2200 nM on EP2 receptor and 250 nM on EP4 receptor.
In assay [1], `CCCCCC(O)/C=C/CN1CCC(=O)N1CCc1ccc(C(=O)O)cc1` (centres unmarked) [Example 5, 4-(2-{2-[(2E)-4-hydroxynon-2-enyl]-5-oxopyrazolidin-1-yl}ethyl)benzoic acid] gave an EC50 of 12500 nM. Moreover, affinity on EP2 receptor was put at a Ki of 25900 nM.
The like results for `CCCC(C)(O)CCCN1CCC(=O)N1CCc1ccc(C(=O)O)cc1` (centres unmarked) [Example 10, 4-{2-[2-(4-hydroxy-4-methylheptyl)-5-oxopyrazolidin-1-yl]ethyl}benzoic acid] were, in that order, 5300 nM and 28900 nM.
Consider `CC(c1ccccc1)C(O)CCN1CCC(=O)N1CCc1ccc(C(=O)O)cc1` (stereo in doubt) [Example 30, 4-(2-{2-[(4R)-3-hydroxy-4-phenylpentyl]-5-oxopyrazolidin-1-yl}ethyl)benzoic acid], for which the results for the inhibition constant (Ki) on EP2 receptor and on EP4 receptor were 5130 nM and 93 nM, respectively.
Take `CCCC(C)C(O)CCN1CCC(=O)N1CCc1ccc(C(=O)O)cc1` (centres unmarked) [Example 13, 4-{2-[2-(3-hydroxy-4-methylheptyl)-5-oxopyrazolidin-1-yl]ethyl}benzoic acid]: the midpoint of the response in assay [1], the EC50, lay at 5000 nM. Also, the values for the Ki at EP2 receptor and at EP4 receptor were 2760 nM and 6000 nM, respectively.
The like results for `CCCCCC(O)CCCN1CCC(=O)N1CCc1ccc(C(=O)O)cc1` (centres unmarked) [Example 3, 4-{2-[2-(4-hydroxynonyl)-5-oxopyrazolidin-1-yl]ethyl}benzoic acid] were, in that order, 1300 nM, 2440 nM and 2000 nM.
For the compound `CCCCCC(O)CCCN1CCC(=O)N1CCc1ccc(C(=O)O)cc1` (stereo in doubt) [Example 15, 4-{2-[2-((4R)-hydroxynonyl)-5-oxopyrazolidin-1-yl]ethyl}benzoic acid], the response in assay [1] was half-maximal at 1500 nM (EC50). Besides, the affinity at EP2 receptor corresponds to a Ki of 3260 nM.
As to `CC(c1ccccc1)C(O)CCN1CCC(=O)N1CCc1ccc(C(=O)O)cc1` (stereo in doubt) [Example 27, 4-(2-{2-[(4S)-3-hydroxy-4-phenylpentyl]-5-oxopyrazolidin-1-yl}ethyl)benzoic acid], the Ki on EP2 receptor is 7090 nM; on EP4 receptor, 95 nM.
`O=C(O)c1ccc(CCN2C(=O)CCN2CCC(O)Cc2cccc(Cl)c2)cc1` (centres unmarked) [Example 29, 4-(2-{2-[4-(3-chlorophenyl)-3-hydroxybutyl]-5-oxopyrazolidin-1-yl}ethyl)benzoic acid]: the inhibition constant (Ki) on EP2 receptor is 5690 nM; at EP4 receptor, 18 nM.
In assay [1], `CCC1(C(O)CCCN2CCC(=O)N2CCc2ccc(C(=O)O)cc2)CCC1` (centres unmarked) [Example 19, 4-(2-{2-[4-(1-ethylcyclobutyl)-4-hydroxybutyl}-5-oxopyrazolidin-1-yl}ethyl)benzoic acid] returned an EC50 of 393 nM. For the same compound, the Ki on EP2 receptor was found to be 750 nM.
The like results for `CCCCC(O)(CC)CCCN1CCC(=O)N1CCc1ccc(C(=O)O)cc1` (centres unmarked) [Example 9, 4-{2-[2-(4-ethyl-4-hydroxyoctyl)-5-oxopyrazolidin-1-yl]ethyl}benzoic acid] were, in that order, 461 nM and 495 nM.
The like results for `CCCCCC(O)/C=C\CN1CCC(=O)N1CCc1ccc(C(=O)O)cc1` (centres unmarked) [Example 4, 4-(2-{2-[(2Z)-4-hydroxynon-2-enyl]-5-oxopyrazolidin-1-yl}ethyl)benzoic acid] were, in that order, 2600 nM and 17200 nM.
In the same order, the values of `CC(C)CC(O)CCCN1CCC(=O)N1CCc1ccc(C(=O)O)cc1` (centres unmarked) [Example 7, 4-{2-[2-(4-hydroxy-6-methylheptyl)-5-oxopyrazolidin-1-yl]ethyl}benzoic acid] are 9700 nM and 28600 nM.
Compound `CCCCCC(O)C#CCN1CCC(=O)N1CCc1ccc(C(=O)O)cc1` (centres unmarked) [Example 2, 4-{2-[2-(4-hydroxynon-2-ynyl)-5-oxopyrazolidin-1-yl]ethyl}benzoic acid] came in with an EC50 in assay [1] of more than 50000 nM. Also, the Ki at EP2 receptor was more than 50000 nM.
On to `CCCCCC(O)CCCN1CCC(=O)N1CCc1ccc(C(=O)O)cc1` (stereo in doubt) [Example 14, 4-{2-[2-((4S)-hydroxynonyl)-5-oxopyrazolidin-1-yl]ethyl}benzoic acid], for which the concentration for a half-maximal effect (EC50) was found to be 566 nM in assay [1] and 10 nM in assay [2]. Besides, the Ki on EP2 receptor was 1860 nM; on EP4 receptor, 566 nM.
On EP4 receptor, `O=C(O)c1ccc(CCN2C(=O)CCN2CCC(O)Cc2ccc3c(c2)OCO3)cc1` (centres unmarked) [Example 28, 4-(2-{2-[4-(1,3-benzodioxol-5-yl)-3-hydroxybutyl]-5-oxopyrazolidin-1-yl}ethyl)benzoic acid] showed a Ki of 376 nM.
With `O=C(O)c1ccc(CCN2C(=O)CCN2CCC(O)Cc2cccc(OC(F)(F)F)c2)cc1` (centres unmarked) [Example 24, 4-[2-(2-{3-hydroxy-4-[3-(trifluoromethoxy)phenyl]butyl}-5-oxopyrazolidin-1-yl)ethyl]benzoic acid], the Ki at EP2 receptor is 2830 nM; at EP4 receptor it was 59 nM.
The compound `O=C(O)c1ccc(CCN2C(=O)CCN2CCCC(O)C2(CC3CC3)CCC2)cc1` (centres unmarked) [Example 18, 4-[2-(2-{4-[1-(cyclopropylmethyl)cyclobutyl]-4-hydroxybutyl}-5-oxopyrazolidin-1-yl)ethyl]benzoic acid] gave an EC50 in assay [1] of 578 nM. The compound also registered a Ki at EP2 receptor of 610 nM.

The values above are taken from patent US7863312B2, “Pyrazolidinone compounds as ligands of the prostaglandin EP2 and/or EP4 receptors” (Merck Serono SA, priority 2001, dated 2011).
